The target in one experiment is T1, recombinant Human Phosphodiesterase B2 (PDE4B2) (Homo sapiens, UniProt Q07343). Put plainly: Human Phosphodiesterase B2 Alpha Screen Assay. It counts as biochemical. As to conditions: Alpha Screen cAMP assay. As to the method: Human Phosphodiesterase B2 Alpha Screen Assay
T1 sequence (Q07343 1-564 isoform Q07343-2): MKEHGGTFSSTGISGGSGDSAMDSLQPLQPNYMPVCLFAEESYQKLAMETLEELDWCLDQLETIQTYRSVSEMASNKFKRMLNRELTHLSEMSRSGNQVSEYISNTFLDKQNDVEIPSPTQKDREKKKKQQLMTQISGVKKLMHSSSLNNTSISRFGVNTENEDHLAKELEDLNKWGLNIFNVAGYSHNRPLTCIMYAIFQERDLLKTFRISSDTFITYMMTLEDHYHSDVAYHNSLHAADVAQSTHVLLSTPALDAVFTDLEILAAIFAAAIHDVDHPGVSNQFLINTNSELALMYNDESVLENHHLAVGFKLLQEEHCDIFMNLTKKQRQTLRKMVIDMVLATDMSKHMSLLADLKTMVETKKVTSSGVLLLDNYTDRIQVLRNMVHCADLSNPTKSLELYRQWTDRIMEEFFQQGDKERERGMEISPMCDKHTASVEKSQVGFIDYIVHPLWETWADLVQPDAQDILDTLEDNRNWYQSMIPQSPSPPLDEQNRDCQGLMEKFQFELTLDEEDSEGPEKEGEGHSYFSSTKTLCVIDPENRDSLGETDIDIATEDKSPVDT
The assay uses recombinant Human Phosphodiesterase B2 (PDE4B2) produced in house (PrAZL0133), stored at −20° C. The substrate uses cAMP, part of the Alpha Screen cAMP kit (Perkin Elmer, Cat# 6760625M), stored at 4° C. The Alpha Screen kit also includes biotinylated cAMP, acceptor and donor beads.
The assay additions were as follows: Test compounds and controls were added to white 384-well flat-bottom plates (Greiner, Cat# 781075), 0.2 μl in 100% DMSO, followed by 10 μl PDE4B2 in reaction buffer. The reaction buffer constitution was: 50 mM Tris (pH 7.5), 8.3 mM MgCl2, 1.7 mM EGTA and 0.01% (w/v) Brij®35. The enzyme and the compounds were incubated at room temperature for 15 minutes. Then 10 μl cAMP in reaction buffer was added. The assay was stopped after 60 minutes incubation at room temperature by adding 10 μl acceptor beads in detection buffer with 40 mM EDTA. The detection buffer constitution was: 5 mM Tris (pH 7.5), 0.1% (w/v) BSA and 0.1% (v/v) Tween 20. This addition followed by an addition of 10 μl donor beads in detection buffer, with biotinylated cAMP. The plates were then incubated, dark at room temperature, for 5 hours followed by measurement on a Fusion™-α analyser. IC50 values (presented in Table 4) were determined using Xlfit curve fitting using model 205.
As to `O=C(N[C@H]1CC[C@@H](n2c(=O)c3cc(F)cnc3n(C3CCSC3)c2=O)CC1)C1CC1` (relative stereo) [Example 27, N-{cis-4-[6-fluoro-2,4-dioxo-1-(tetrahydro-3-thienyl)-1,4-dihydropyrido[2,3-d]pyrimidin-3(2H)-yl]cyclohexyl}cyclopropanecarboxamide], the IC50 came out at 10.7 nM.
Still for that read-out and setting: the result for `O=C(N[C@H]1CC[C@@H](n2c(=O)c3cc(F)cnc3n(C3CCSCC3)c2=O)CC1)c1ccco1` [Example 24, N-{cis-4-[6-fluoro-2,4-dioxo-1-(tetrahydro-2H-thiopyran-4-yl)-1,4-dihydropyrido[2,3-d]pyrimidin-3(2H)-yl]cyclohexyl}-2-furamide] reads 2.76 nM; that for `O=C(N[C@H]1CC[C@@H](n2c(=O)c3cc(F)cnc3n(C3CCSCC3)c2=O)CC1)c1cccc2cccnc12` [Example 3, N-{cis-4-[6-fluoro-2,4-dioxo-1-(tetrahydro-2H-thiopyran-4-yl)-1,4-dihydropyrido[2,3-d]pyrimidin-3(2H)-yl]cyclohexyl}quinoline-8-carboxamide], 1.31 nM.
On the same count and under the same terms, the result for `O=C(N[C@H]1CC[C@@H](n2c(=O)c3cc(F)cnc3n(C3CCSCC3)c2=O)CC1)c1ccccc1O` [Example 17, N-{cis-4-[6-fluoro-2,4-dioxo-1-(tetrahydro-2H-thiopyran-4-yl)-1,4-dihydropyrido[2,3-d]pyrimidin-3(2H)-yl]cyclohexyl}-2-hydroxybenzamide] reads 4.65 nM.
Still for that read-out and setting: the result for `O=C(N[C@H]1CC[C@@H](n2c(=O)c3cc(F)cnc3n(C3CCSCC3)c2=O)CC1)c1ncccc1O` [Example 20, N-{cis-4-[6-fluoro-2,4-dioxo-1-(tetrahydro-2H-thiopyran-4-yl)-1,4-dihydropyrido[2,3-d]pyrimidin-3(2H)-yl]cyclohexyl}-3-hydroxypyridine-2-carboxamide] reads 5.9 nM.
Take `O=C(Cc1cccc(O)c1)N[C@H]1CC[C@@H](n2c(=O)c3cc(F)cnc3n(C3CCSCC3)c2=O)CC1` [Example 8, N-{cis-4-[6-fluoro-2,4-dioxo-1-(tetrahydro-2H-thiopyran-4-yl)-1,4-dihydropyrido[2,3-d]pyrimidin-3(2H)-yl]cyclohexyl}-2-(3-hydroxyphenyl)acetamide]: the IC50 was 1.62 nM.
Still for that read-out and setting: the result for `O=C(N[C@H]1CC[C@@H](n2c(=O)c3cc(F)cnc3n(C3CCSC3)c2=O)CC1)c1cc(CO)ccc1O` (relative stereo) [Example 29, N-{cis-4-[6-fluoro-2,4-dioxo-1-(tetrahydro-3-thienyl)-1,4-dihydropyrido[2,3-d]pyrimidin-3(2H)-yl]cyclohexyl}-2-hydroxy-5-(hydroxymethyl)benzamide] reads 5.51 nM; that for `O=C(N[C@H]1CC[C@@H](n2c(=O)c3cc(F)cnc3n(C3CCSCC3)c2=O)CC1)c1n[nH]c2ccccc12` [Example 5, N-{cis-4-[6-fluoro-2,4-dioxo-1-(tetrahydro-2H-thiopyran-4-yl)-1,4-dihydropyrido[2,3-d]pyrimidin-3(2H)-yl]cyclohexyl}-1H-indazole-3-carboxamide], 1.35 nM; that for `COc1cc(C(=O)N[C@H]2CC[C@@H](n3c(=O)c4cc(F)cnc4n(C4CCSCC4)c3=O)CC2)ccc1O` [Example 11, N-{cis-4-[6-fluoro-2,4-dioxo-1-(tetrahydro-2H-thiopyran-4-yl)-1,4-dihydropyrido[2,3-d]pyrimidin-3(2H)-yl]cyclohexyl}-4-hydroxy-3-methoxybenzamide], 1.61 nM.
On to `O=C(N[C@H]1CC[C@@H](n2c(=O)c3cc(F)cnc3n(C3CCSCC3)c2=O)CC1)c1ccccc1` [Example 23, N-{cis-4-[6-fluoro-2,4-dioxo-1-(tetrahydro-2H-thiopyran-4-yl)-1,4-dihydropyrido[2,3-d]pyrimidin-3(2H)-yl]cyclohexyl}benzamide], for which the IC50 was determined as 2.72 nM.
On to `CC(C)CC(=O)N[C@H]1CC[C@@H](n2c(=O)c3cc(F)cnc3n(C3CCSCC3)c2=O)CC1` [Example 21, N-{cis-4-[6-fluoro-2,4-dioxo-1-(tetrahydro-2H-thiopyran-4-yl)-1,4-dihydropyrido[2,3-d]pyrimidin-3(2H)-yl]cyclohexyl}-3-methylbutanamide], for which the IC50 amounted to 4.72 nM.

A further experiment addresses T1, recombinant Human Phosphodiesterase B2 (PDE4B2). Briefly: Human Phosphodiesterase B2 Radiometric Assay. As to conditions: radiometric SPA assay, [3H]cyclic AMP 8 nM, read-out: PDE4B2 pIC50 (converted). The experiment is classed as biochemical. Here is the method: Human Phosphodiesterase B2 Radiometric Assay
The assay uses recombinant Human Phosphodiesterase B2 (PDE4B2) produced in house (PrAZL0163), stored at −20° C. This assay is based on the observation that 5′AMP, the product of the reaction catalysed by PDE4, binds preferentially to yttrium silicate SPA beads (Amersham Biosciences, UK) compared to the substrate, cAMP. Compounds at the appropriate concentration were preincubated at 30 C for 30 min with an assay buffer containing 50 mM HEPES (pH 7.5), 8.3 mM MgCl2, 1.7 mM EGTA, 0.01% (w/v) Brij®35 and 0.1 μg/mL recombinant PDE4B2. The reaction was started by the addition of [3H]cyclic AMP to give a final concentration of 8 nM, and was stopped 20 minutes after the addition of the substrate by the addition of yttrium silicate SPA beads containing 18 mM Zn SO4. Bound [3H]cyclic AMP was measured using a Topcount NXT (Packard Bioscience, UK). pIC50 values (presented in Table 5) were determined using Xlfit3 curve fitting, using model 205.
Consider `CN(C)c1ccc(C(=O)NC2CCC(n3c(=O)c4cc(F)cnc4n(C4CCSCC4)c3=O)CC2)cc1` (stereo not drawn) [Example 67, 4-dimethylamino-N-[4-(9-fluoro-2,4-dioxo-5-tetrahydrothiopyran-4-yl-3,5,7-triazabicyclo[4.4.0]deca-6,8,10-trien-3-yl)cyclohexyl]benzamide], for which the IC50 was 0.501 nM.
The same measure, in the same setting: the result for `O=C(N[C@H]1CC[C@@H](n2c(=O)c3cc(F)cnc3n(C3CCSCC3)c2=O)CC1)c1cn2cc(F)ccc2n1` [Example 41, 6-fluoro-N-{cis-4-[6-fluoro-2,4-dioxo-1-(tetrahydro-2H-thiopyran-4-yl)-1,4-dihydropyrido[2,3-d]pyrimidin-3(2H)-yl]cyclohexyl}imidazo[1,2-a]pyridine-2-carboxamide] reads 0.126 nM; that for `O=C(N[C@H]1CC[C@@H](n2c(=O)c3cc(F)cnc3n(C3CCSCC3)c2=O)CC1)C(O)c1ccc(O)cc1` (stereo partly drawn) [Example 64b, N-{cis-4-[6-fluoro-2,4-dioxo-1-(tetrahydro-2H-thiopyran-4-yl)-1,4-dihydropyrido[2,3-d]pyrimidin-3(2H)-yl]cyclohexyl}-2-hydroxy-2-(4-hydroxyphenyl)acetamide], 0.316 nM; that for `O=C(N[C@H]1CC[C@@H](n2c(=O)c3cc(F)cnc3n(C3CCSCC3)c2=O)CC1)c1cn2c(n1)CCCC2` [Example 33, N-{cis-4-[6-fluoro-2,4-dioxo-1-(tetrahydro-2H-thiopyran-4-yl)-1,4-dihydropyrido[2,3-d]pyrimidin-3(2H)-yl]cyclohexyl}-5,6,7,8-tetrahydroimidazo[1,2-a]pyridine-2-carboxamide], 0.398 nM.

The values above are taken from patent publication US20090233907A1, “Pyridopyrimidine Derivatives and Their Use as PDE4 Inhibitors” (ASTRAZENECA AB, priority 2006, published 2009).
